Laboratory results reported in patent US9029337B2, “Modulation of factor 7 expression” (Isis Pharmaceuticals, Inc., priority 2007, dated 2015).
Strand notation (5' to 3'): a small letter for the sugar, then the base; units joined by * are phosphorothioate-linked, units joined directly phosphodiester-linked; [ ] holds rarer units or linkages, { } end groups; capitals alone tell only the bases. e = 2'-O-(2-methoxyethyl) (MOE); [5mC] = 5-methylcytosine; d = 2'-deoxy (DNA)

Tested on: human Factor 7 mRNA
Experiment: Antisense inhibition of human Factor 7 mRNA in HepB3 cells, 50 nM antisense oligonucleotide, lipofectin
Assay type: cell-based
Conditions: Table 13 (microwalk), 50 nM, lipofectin, approximately 24 hours
Summary of the method: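 Seeding density was 4,000 cells per well. Following roughly 24 hours of oligonucleotide treatment, RNA was extracted and Factor 7 message quantified using the RTS 2927 primer probe set. Levels were corrected for RIBOGREEN® total RNA and expressed against untreated controls.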

Substance | % Inhibition
416482 (antisense e[5mC]*eA*eT*eG*eG*dT*dG*dA*dT*dG*d[5mC]*dT*dT*d[5mC]*dT*eG*eA*eA*eT*eT) [compound 416482] | 64%

Same assay, conditions: lipofectin, 50 nM antisense oligonucleotide, approximately 24 hours, Factor 7 mRNA by real-time RT-PCR (RTS 2927), relative to untreated control

Substance | % Inhibition
416456 (antisense e[5mC]*eT*eG*e[5mC]*eG*d[5mC]*d[5mC]*dA*d[5mC]*d[5mC]*d[5mC]*dG*d[5mC]*d[5mC]*dG*eG*e[5mC]*eT*e[5mC]*eT) [compound 416456] | 58%
416457 (antisense eG*eG*eA*eT*eG*dA*dT*dG*dA*d[5mC]*d[5mC]*dT*dG*d[5mC]*dG*e[5mC]*e[5mC]*eA*e[5mC]*e[5mC]) [compound 416457] | 48%
416458 (antisense eG*eG*e[5mC]*eG*eG*dA*dG*d[5mC]*dA*dG*d[5mC]*dG*d[5mC]*dG*dA*eT*eG*eT*e[5mC]*eG) [compound 416458] | 29%
416459 (antisense eT*eG*eG*eT*e[5mC]*dA*dG*dT*dG*dA*dG*dG*dA*d[5mC]*d[5mC]*eA*e[5mC]*eG*eG*eG) [compound 416459] | 23%
416460 (antisense e[5mC]*eA*e[5mC]*e[5mC]*eA*d[5mC]*dA*dT*dG*dG*dT*d[5mC]*dA*dG*dT*eG*eA*eG*eG*eA) [compound 416460] | 49%
416461 (antisense eG*eA*eA*eG*e[5mC]*dG*d[5mC]*dA*d[5mC]*dG*dA*dA*dG*dG*d[5mC]*e[5mC]*eA*eG*e[5mC]*eG) [compound 416461] | 43%
416462 (antisense eG*eG*e[5mC]*eA*eG*dT*d[5mC]*d[5mC]*dT*dG*dG*dG*dT*d[5mC]*dA*eT*e[5mC]*eA*eG*e[5mC]) [compound 416462] | 60%
416463 (antisense eT*eG*e[5mC]*eT*eG*d[5mC]*dA*dG*dG*d[5mC]*dA*dG*dT*d[5mC]*d[5mC]*eT*eG*eG*eG*eT) [compound 416463] | 39%
416464 (antisense eA*eA*e[5mC]*eA*eT*dG*dT*dA*d[5mC]*dT*d[5mC]*d[5mC]*dG*dT*dG*eA*eT*eA*eT*eT) [compound 416464] | 53%
416465 (antisense e[5mC]*eA*e[5mC]*eT*eG*dT*d[5mC]*d[5mC]*d[5mC]*d[5mC]*d[5mC]*dT*dT*dG*d[5mC]*eA*eG*eG*eA*eG) [compound 416465] | 51%
416466 (antisense eT*eG*eT*eG*eG*dG*d[5mC]*d[5mC]*dT*d[5mC]*d[5mC]*dA*d[5mC]*dT*dG*eT*e[5mC]*e[5mC]*e[5mC]*e[5mC]) [compound 416466] | 57%
416467 (antisense e[5mC]*e[5mC]*e[5mC]*eT*eG*dG*d[5mC]*d[5mC]*d[5mC]*d[5mC]*dA*dG*d[5mC]*dT*dG*eA*e[5mC]*eG*eA*eT) [compound 416467] | 55%
416468 (antisense eT*eG*eG*eG*eA*dG*dA*d[5mC]*d[5mC]*d[5mC]*dT*dG*dG*dT*dG*eT*eA*e[5mC]*eA*e[5mC]) [compound 416468] | 46%
416469 (antisense eG*e[5mC]*eA*eG*e[5mC]*d[5mC]*dA*d[5mC]*dT*d[5mC]*dG*dA*dT*dG*dT*eA*e[5mC]*eT*eG*eG) [compound 416469] | 55%
416470 (antisense eG*e[5mC]*eT*eT*eT*dT*dG*d[5mC]*dA*dG*d[5mC]*d[5mC]*dA*d[5mC]*dT*e[5mC]*eG*eA*eT*eG) [compound 416470] | 39%
416471 (antisense eT*eG*eA*eG*e[5mC]*dT*dT*dT*dT*dG*d[5mC]*dA*dG*d[5mC]*d[5mC]*eA*e[5mC]*eT*e[5mC]*eG) [compound 416471] | 62%
416473 (antisense e[5mC]*e[5mC]*e[5mC]*eT*eG*d[5mC]*d[5mC]*d[5mC]*d[5mC]*dT*d[5mC]*dT*dG*dT*d[5mC]*e[5mC]*eA*eG*e[5mC]*eG) [compound 416473] | 61%
416474 (antisense eT*eG*eT*e[5mC]*eT*dG*d[5mC]*d[5mC]*dT*d[5mC]*d[5mC]*dA*dG*dG*dA*e[5mC]*eA*eA*e[5mC]*e[5mC]) [compound 416474] | 40%
416475 (antisense e[5mC]*eT*e[5mC]*eA*eG*d[5mC]*dT*dG*dG*dG*d[5mC]*dT*dG*dT*d[5mC]*eT*eG*e[5mC]*e[5mC]*eT) [compound 416475] | 70%
416476 (antisense eG*e[5mC]*eA*eG*eG*dT*dG*dG*dG*d[5mC]*dT*dT*dG*dG*d[5mC]*eT*eG*eA*eA*eG) [compound 416476] | 58%
416478 (antisense eG*eT*e[5mC]*eT*e[5mC]*d[5mC]*dA*dG*d[5mC]*dA*dA*dT*dG*dA*dA*eG*eG*e[5mC]*eA*eG) [compound 416478] | 44%
416479 (antisense eG*eA*e[5mC]*eA*eG*d[5mC]*dA*d[5mC]*dA*d[5mC]*dA*dT*dG*dG*dA*eG*eT*e[5mC]*eA*eG) [compound 416479] | 56%

Substance | % Inhibition
416480 (antisense eA*eA*eG*eT*eG*dA*dG*dA*dG*d[5mC]*dT*dA*dA*dA*d[5mC]*eA*eA*e[5mC]*e[5mC]*eG) [compound 416480] | 25%
416481 (antisense eA*eG*eA*eT*eG*dA*dT*dA*dA*dT*dG*dG*dA*dT*dA*eA*eG*eA*eA*e[5mC]) [compound 416481] | 15%
416482 (antisense e[5mC]*eA*eT*eG*eG*dT*dG*dA*dT*dG*d[5mC]*dT*dT*d[5mC]*dT*eG*eA*eA*eT*eT) [compound 416482] | 64%
416483 (antisense eT*eG*eT*eG*eA*dG*dG*dG*dT*dT*d[5mC]*dA*dT*dT*dT*e[5mC]*eA*eG*eT*eG) [compound 416483] | 22%
416484 (antisense eT*eA*e[5mC]*eA*eG*d[5mC]*d[5mC]*dT*d[5mC]*dA*dA*dA*d[5mC]*dA*dT*e[5mC]*eT*eA*eT*e[5mC]) [compound 416484] | 0%
416485 (antisense eG*eA*eG*e[5mC]*eT*dA*d[5mC]*dA*dG*d[5mC]*d[5mC]*dT*d[5mC]*dA*dA*eA*e[5mC]*eA*eT*e[5mC]) [compound 416485] | 7%
416486 (antisense eA*eT*eT*eG*eA*d[5mC]*dA*dA*dG*dG*dG*d[5mC]*dT*dG*dT*eG*eG*e[5mC]*eA*eG) [compound 416486] | 12%
416487 (antisense eG*e[5mC]*eA*eG*eG*dT*dG*d[5mC]*dT*d[5mC]*d[5mC]*d[5mC]*dA*dG*dG*eG*eT*e[5mC]*eT*e[5mC]) [compound 416487] | 39%
416488 (antisense e[5mC]*eA*eG*eG*eT*d[5mC]*d[5mC]*dT*d[5mC]*d[5mC]*d[5mC]*dA*d[5mC]*dT*dG*e[5mC]*eA*eG*e[5mC]*e[5mC]) [compound 416488] | 41%
416489 (antisense eG*eT*eG*e[5mC]*eA*dG*d[5mC]*dT*dT*dG*d[5mC]*d[5mC]*dA*dG*dG*eT*e[5mC]*e[5mC]*eT*e[5mC]) [compound 416489] | 38%
416490 (antisense eA*e[5mC]*eT*e[5mC]*eA*dG*d[5mC]*dA*dA*dG*dA*dG*dT*dG*d[5mC]*eA*eG*e[5mC]*eT*eT) [compound 416490] | 33%
416491 (antisense eG*eA*eG*eA*eA*dG*dG*dG*dT*dT*dG*d[5mC]*dA*dG*dG*e[5mC]*eA*eG*eG*eA) [compound 416491] | 2%
416492 (antisense eG*eG*eA*eT*e[5mC]*dA*dT*dT*d[5mC]*dT*dG*dG*d[5mC]*d[5mC]*d[5mC]*eT*eG*eA*eG*e[5mC]) [compound 416492] | 13%
416493 (antisense eT*e[5mC]*eT*eT*eG*dG*dG*dT*dG*dT*dG*dG*dA*dT*dG*eT*eA*eA*eA*eT) [compound 416493] | 0%
416494 (antisense e[5mC]*eA*eG*eA*eT*dT*dT*dA*dA*dA*d[5mC]*dT*dG*d[5mC]*dA*eG*eA*eT*eG*eA) [compound 416494] | 0%
416495 (antisense eT*e[5mC]*eT*eA*eG*dA*dA*dT*dT*d[5mC]*d[5mC]*dA*dA*dA*d[5mC]*e[5mC]*e[5mC]*e[5mC]*eT*eA) [compound 416495] | 0%
416496 (antisense e[5mC]*eA*eA*e[5mC]*eA*d[5mC]*dT*dT*d[5mC]*dA*dA*dA*dT*dA*d[5mC]*eG*eA*eT*e[5mC]*eT) [compound 416496] | 0%
416497 (antisense e[5mC]*eG*eT*eG*e[5mC]*dA*dG*dG*dT*dG*dT*dT*dA*dA*dG*eG*eT*eG*eT*eG) [compound 416497] | 0%
416498 (antisense eG*eG*e[5mC]*e[5mC]*eA*dG*dT*dG*dG*d[5mC]*d[5mC]*dA*dT*dG*d[5mC]*eA*eT*e[5mC]*e[5mC]*e[5mC]) [compound 416498] | 5%
416499 (antisense eG*eA*eG*eA*eG*d[5mC]*dT*dG*d[5mC]*dA*d[5mC]*d[5mC]*dT*dG*dG*e[5mC]*e[5mC]*eG*eG*e[5mC]) [compound 416499] | 7%
416500 (antisense e[5mC]*eT*eG*eA*eA*d[5mC]*dA*d[5mC]*d[5mC]*d[5mC]*d[5mC]*dA*dG*d[5mC]*dT*eG*eA*eG*eA*eG) [compound 416500] | 1%

Same assay, conditions: oligonucleotides targeted to nucleobases 13760 to 13789 of SEQ ID NO: 1 (Table 10)

Substance | % Inhibition (human Factor 7 mRNA levels)
416456 (antisense e[5mC]*eT*eG*e[5mC]*eG*d[5mC]*d[5mC]*dA*d[5mC]*d[5mC]*d[5mC]*dG*d[5mC]*d[5mC]*dG*eG*e[5mC]*eT*e[5mC]*eT) [compound 416456] | 50%

Same assay, conditions: oligonucleotides targeted to nucleobases 15098 to 15122 of SEQ ID NO: 1 (Table 12)

Substance | % Inhibition (human Factor 7 mRNA levels)
416479 (antisense eG*eA*e[5mC]*eA*eG*d[5mC]*dA*d[5mC]*dA*d[5mC]*dA*dT*dG*dG*dA*eG*eT*e[5mC]*eA*eG) [compound 416479] | 47%
